In patent US11458112B2, “Compositions and methods for inducing defecation” (Dignify Therapeutics, LLC, priority 2019, dated 2022):
Marks after values point to notes of the source that are not given here.

Assays:
[1] = system: anesthetized spinal intact rats; test: Rectal pressure (balloon catheter) after intrarectal capsaicin solution in anesthetized spinal intact rats; type: in vivo, rat
Protocol: (§1) General: In vivo studies were performed in anesthetized, acute spinal cord injured (SCI) rats, anesthetized spinal intact rats, and awake chronic spinal cord injured rats. Adult female and male Sprague Dawley rats (Charles River, N.C.; 250-650 g) were housed at an AAALAC approved facility in cages (1-3/cage) with free access to water and food in a colony room that was maintained on a 12 hr/12 hr light/dark cycle.
(§2) For all rectal contractility studies, animals were anesthetized with urethane (1.0-1.4 g/kg subcutaneous injection). Surgical procedures were then performed with the addition of isoflurane anesthesia (0.05-1.5% in O2) as needed.
(§3) Rectal Contractility: Rectal pressures were measured via a latex balloon catheter (length 1.5-4 cm) inserted (˜4 cm) into the distal rectal region. The catheter was connected to a pressure monitoring system. […] Parameters measured included peak rectal pressure response, duration of time above baseline activity (in the 1st 5 min after drug administration), area under the curve (measured during the 1st 5 min after drug administration) and the number of contractile events after vehicle and drug administration.
(§4) Dosing: Intrarectal capsaicin was administered in a dose range of 0.1-2% wt/vol. Capsaicin was dissolved in 95% ethanol at 50-100 mg/mL and then diluted to 2-20 mg/mL with either saline or water to form a suspension and administered intrarectally as a solution using a micropipette, blunt tip tube (22 G) or as a small solution-soaked cotton ball (3-5 mm diameter). Vehicle doses were prepared using the same concentrations of ethanol in water or saline.
Methods: Capsaicin was administered to anesthetized spinal intact male and female rats (N=4 males and 1 female) instrumented for rectal pressure recording via a balloon catheter inserted into the rectum 2-4 cm from the anus. Capsaicin was administered as 0.2% solution (0.05-0.32 mL of a 2 mg/ml solution in 4.7 or 9.5% ethanol/saline) via a PE50 tube that was inserted into the rectum alongside the balloon catheter. For comparison, vehicle was administered to all rats using the same techniques.
Methods: Capsaicin was administered to an anesthetized spinal intact male rat instrumented for rectal pressure recording via a balloon catheter inserted into the rectum 2-4 cm from the anus. Capsaicin was administered as 0.2% solution (0.2%, 0.25 mL) in ethanol/saline via a PE50 tube that was inserted into the rectum alongside the balloon catheter. Vehicle was administered to all rats using the same techniques. Administration of capsaicin solution is indicated by filled arrow in FIG. 3.

[2] = system: anesthetized acute T9-transected SCI rats; test: Rectal pressure after intrarectal capsaicin-soaked cotton ball in anesthetized acute SCI rats; type: in vivo, rat; settings: cotton ball soaked in 50 uL of 0.2% solution, 2 female rats
Protocol: as §1
For the acute SCI model, animals were anesthetized with urethane (1.0-1.4 g/kg subcutaneous injection), the skin and muscle on the dorsal side at the level of the thoracic vertebrae were incised, and the spinal cord was carefully exposed by a laminectomy and transected at T8-T10 spinal level. Gelfoam® was placed at the incision site and the muscle and skin overlying the vertebrae were closed with wound clips. The spinal cord was transected at least 60 min before starting the experimental protocol.
as §2, §3
Dosing: Intrarectal capsaicin was administered in a dose range of 0.1-2% wt/vol. […]
Methods: Capsaicin was administered to 2 anesthetized acute T9-transected SCI female rats instrumented for rectal pressure recording via a balloon catheter inserted into the rectum 2-4 cm from the anus. […] Top and bottom traces in FIG. 4 were recorded from separate rats.

conscious cSCI rats = test: Defecation in metabolism cages after intrarectal dosing in conscious chronic spinal cord injured rats; type: in vivo, rat; settings: for Number of fecal pellets / Total fecal weight: 0.1 mL intrarectal, within 10 min of dosing, N=6, mean + SD
Protocol: as §1
For chronic SCI model preparation, animals were anesthetized with a mixture of ketamine/xylazine (50-100 mg/kg and 5-10 mg/kg intraperitoneal, respectively), the skin and muscle on the dorsal side at the level of the thoracic vertebrae were incised, and the spinal cord was carefully exposed by a laminectomy and transected at either T3-T4 or T8-T10 spinal level. Gelfoam® was placed at the incision site and the muscle and skin overlying the vertebrae were closed with wound clips. The animal recovered from surgery for 7-10 weeks before being studied.
Defecation in awake animals was monitored in metabolism cages. Animals were habituated to handling and the metabolism cages on 2-4 occasions prior to dosing and were then randomized to a treatment arm. Rats were weighed and placed into metabolism cages for 10 min prior to intrarectal administration of vehicle or capsaicin. The number of fecal pellets and timing of events were recorded by trained personnel that were blinded to treatment. Fecal weight is weighed at 10 and 30 min post dosing. Animals were re-tested 2-3 days later in a cross over design.
as §4
Methods: Defecation in rats was monitored in metabolism cages. Chronic spinal cord injured (cSCI) rats were habituated to handling and the metabolism cages on 2-4 occasions before dosing, then randomized to the treatment arm. Rats were weighed and placed into metabolism cages for 10 min prior to receiving an intrarectal dose of vehicle or capsaicin. Since manual stimulation during intrarectal dosing in conscious rats can induce defecation, the tip of a small cotton swab was inserted into the anus prior to dose administration, to stimulate natural defecation of any fecal pellets that were located in the region of the anal sphincter. […] Once the anal sphincter had ceased contracting/relaxing (15-90 s) a fine catheter (22 G soft/flexible blunt tip catheter) was used to dose the vehicle or capsaicin, as this method produced little manual stimulation. Capsaicin was prepared as a 0.2 or 2% solution (2 or 20 mg/ml in diluted ethanol/water; vehicle corresponding to each dose concentration was 1.9 and 19% ethanol/water, respectively). Dose volumes were 0.1 mL and administered via the catheter inserted ˜1 inch through the anus into the rectum. The number of fecal pellets and timing of events were recorded by trained personnel blinded to the treatment. Fecal weight was recorded at 10 and 30 min post dosing. Animals were re-tested 2-3 days later in a cross over design.

[3] = system: healthy subjects and subjects having irritable bowel syndrome (IBS); settings: concentrations of 0.01% and 0.1%, both groups; cited from earlier work
[4] = 0.2% capsaicin solution intrarectal
[5] = 0.2%, 0.25 mL intrarectal, one male rat (Example 3)

## COc1cc(CNC(=O)CCCC/C=C/C(C)C)ccc1O [Capsaicin, 8-methyl-N-vanillyl-6-nonenamide]
[1]; 0.2% capsaicin repeated 20 min after the initial dose
  response to repeat dosing: evoked a similar response
[1]; [4]
  duration of rectal pressure increase: 5 min
  onset time of rectal pressure increase: 1 to 2 min
[1]; 0.2% capsaicin solution intrarectal, 0.05-0.32 mL, N=4 males and 1 female
  rats with transient rectal pressure increase: 5 of 5
[1]; [5]
  expulsion of rectal balloon catheter: expelled from the rectum through the anus
  onset of increase in rectal pressure: ≤ 1 min
[2]
  duration of rectal pressure increase: < 5 min
  onset of rectal pressure increase: < 2 min
  rats with capsaicin-induced rectal pressure increase: both rats
Conscious cSCI rats; 0.2 or 2% intrarectal
  number and total weight of fecal pellets expelled compared to vehicle: significantly increased
  time to completion of defecation: ≤ 10 min
  time to defecation: ≤ 5 min
Conscious cSCI rats; Capsaicin 0.2%
  Number of fecal pellets: 2.17 + 0.84 ^+
  Total fecal weight: 1.169 + 0.0489 g
Conscious cSCI rats; Capsaicin 2%
  Number of fecal pellets: 2.00 + 0.68 ^+
  Total fecal weight: 1.265 + 0.414 * g
Conscious cSCI rats; any group
  defecation between 10-30 min post-dosing: No defecation was observed
[3]
  reported sensations following intrarectal administration: discomfort and “an urge to defecate”, but not defecation
